{
  "source": "patent EP2640377B1",
  "about": "“FGFR1 EXTRACELLULAR DOMAIN COMBINATION THERAPIES” (Five Prime Therapeutics, Inc., priority 2010, dated 2012)",
  "key": {"[1]": {"test_system": "Human non-small cell lung cancer (NSCLC) cell line H1703", "experiment": "H1703 non-small cell lung cancer (NSCLC) xenograft model: tumor volume and body weight", "type": "in vivo, SCID mice", "settings": "day 38", "protocol": "Human non-small cell lung cancer (NSCLC) cell line H1703 was used as the tumor model and was purchased from ATCC (Manassas, VA; Cat. No. CRL-5889).\nDocetaxel was purchased from Toronto Research Chemicals (North York, Ontario, Canada; cat. No. D494420) and formulated in H2O containing 5% Tween 80 and 5% glucose. Docetaxel was administered i.p. at 25 mg/kg (equivalent to about 75 mg/m^2 in a human) once every three weeks for two doses. In combination groups, FGFR1-ECD.339-Fc and docetaxel were either given concurrently or sequentially with FGFR1-ECD.339-Fc given one day before docetaxel or vice versa. Human albumin was purchased from Grifols USA (Los Angeles, CA; Cat. No. NDC 61953-0002-1), formulated in PBS at 3 mg/mL and was used as negative control at 300 µg/100 µL/mouse (15 mg/kg). Table 2: Dosing Schedule\nThe tumor volume was measured by external caliper to determine the greatest longitudinal diameter (length) and the greatest transverse diameter (width). The tumor volume was then calculated using the following formula: Tumorvolume(mm^3) = (length × width^2)/2 [formula]\nTable 3. Tumor volume analysis on day 38\nTable 4. Analysis of fractional tumor volumea on day 38"}, "[2]": {"test_system": "A549 cells", "experiment": "A549 non-small cell lung cancer (NSCLC) xenograft model: tumor volume and body weight", "settings": "for Fractional tumor volume (FTV), agent alone: day 32"}, "[3]": {"test_system": "Squamous cell lung cancer cell line NCI-H520", "settings": "for Fractional tumor volume (FTV), agent alone / Tumor growth inhibition (%) / Mean Tumor volume mm^3(±SD): day 49; for Tumor growth inhibition (%): alone or with FGFR1-ECD.339-Fc 15 mg/kg; for Mean Tumor volume mm^3(±SD): alone or with FGFR1-ECD.339-Fc 15 mg/kg i.p. 2x/wk", "quoted_text": "Six to eight week old female SCID mice were purchased from Charles River Laboratories (Wilmington, MA) and were acclimated for 1 week before the start of the study. […] The cells were cultured for three to four passages in RPMI+10% FBS + 1% L-glutamine at 37°C in a humidified atmosphere with 5% CO2. When the cultured cells reached 85-90% confluence, cells were harvested and resuspended in cold Ca^2+ and Mg^2+ free PBS containing 50% Matrigel at 3.5 x10^7 cells/ml. The cells were implanted subcutaneously over the right flank of the mice at 3.5x10^6 cells/100µl/mouse. One day after tumor implantation, mice were randomized according to body weight at 10 mice per group. Dosing for all groups began one day post tumor implantation.\nFGFR1-ECD.339-Fc was formulated in PBS at 3 mg/ml and administered intraperitoneally (i.p.) at 15 mg/kg (300 µg/100 µl/mouse) twice a week for six weeks. […] In combination groups, FGFR1-ECD.339-Fc and pemetrexed were administered on the same schedule as when given as single agents, and were administered concurrently on days 1, 4, 8, and 11.\nThe tumor volume and body weight of the mice were monitored twice a week throughout study.\nThe mice were euthanized by isoflurane inhalation and cervical dislocation.\nThe tumor volume of each group of mice on day 49 was analyzed by one-way ANOVA followed by Tukey's test."}, "[4]": {"settings": "FGFR1-ECD.339-Fc 15 mg/kg i.p. twice a week, docetaxel 25 mg/kg i.p. once every three weeks for two doses"}, "[5]": {"settings": "pemetrexed 62.5 mg/kg i.p. QD x 5 x 2 cycles"}, "[6]": {"settings": "pemetrexed 125 mg/kg i.p. QD x 5 x 2 cycles"}, "[7]": {"settings": "pemetrexed 250 mg/kg i.p. (only first five doses given)"}},
  "note": "Where two headings read alike, the source gives them in different places.",
  "data": [
    {"smiles": "CC(=O)O[C@@]12CO[C@@H]1C[C@H](O)[C@@]1(C)C(=O)[C@H](O)C3=C(C)[C@@H](OC(=O)[C@H](O)[C@@H](NC(=O)OC(C)(C)C)c4ccccc4)C[C@@](O)([C@@H](OC(=O)c4ccccc4)[C@H]21)C3(C)C", "note": "[Docetaxel, 1,7β,10β-trihydroxy-9-oxo-5β,20-epoxytax-11-ene-2α,4,13α-triyl 4-acetate 2-benzoate 13-{(2R,3S)-3-[(tert-butoxycarbonyl)amino]-2-hydroxy-3-phenylpropanoate}]", "values": [
      {"measurement": "Mean Tumor volume mm^3(±SD)", "setting": "[1]; [4]", "result": "209 (±303) mm^3"},
      {"measurement": "Tumor growth inhibition (%)", "setting": "[1]; [4]", "result": 74, "unit": "%"},
      {"measurement": "Fractional tumor volume (FTV), agent alone", "setting": "[1]; FGFR1-ECD.339-Fc 15 mg/kg, docetaxel 25 mg/kg, FTV = mean TV treated / mean TV control", "result": 0.25},
      {"measurement": "Fractional tumor volume (FTV), agent alone", "setting": "[2]; docetaxel 3 mg/kg i.p. twice per week alone", "result": 0.79},
      {"measurement": "Fractional tumor volume (FTV), agent alone", "setting": "[2]; docetaxel 10 mg/kg i.p. twice per week alone", "result": 0.58}
    ]},
    {"smiles": "Nc1nc2[nH]cc(CCc3ccc(C(=O)N[C@@H](CCC(=O)O)C(=O)O)cc3)c2c(=O)[nH]1", "note": "[Pemetrexed, (S)-2-[4-[2-(4-amino-2-oxo-3,5,7-triazabicyclo[4.3.0]nona-3,8,10-trien-9-yl)ethyl]benzoyl] aminopentanedioic acid]", "values": [
      {"measurement": "Fractional tumor volume (FTV), agent alone", "setting": "[3]; pemetrexed 62.5 mg/kg alone", "result": 0.59},
      {"measurement": "Tumor growth inhibition (%)", "setting": "[3]; [5]", "result": 40, "unit": "%"},
      {"measurement": "Mean Tumor volume mm^3(±SD)", "setting": "[3]; [5]", "result": "544.7 (±341.5) mm^3"},
      {"measurement": "Fractional tumor volume (FTV), agent alone", "setting": "[3]; pemetrexed 125 mg/kg alone", "result": 0.75},
      {"measurement": "Tumor growth inhibition (%)", "setting": "[3]; [6]", "result": 24, "unit": "%"},
      {"measurement": "Mean Tumor volume mm^3(±SD)", "setting": "[3]; [6]", "result": "689.5 (±328.7) mm^3"},
      {"measurement": "Fractional tumor volume (FTV), agent alone", "setting": "[3]; pemetrexed 250 mg/kg alone", "result": 1.00},
      {"measurement": "Tumor growth inhibition (%)", "setting": "[3]; [7]", "result": 1, "unit": "%"},
      {"measurement": "Mean Tumor volume mm^3(±SD)", "setting": "[3]; [7]", "result": "926.6 (±339.9) mm^3"},
      {"measurement": "tumor inhibition over the course of the study", "setting": "[3]; highest dose of pemetrexed (250 mg/kg), alone or with FGFR1-ECD.339-Fc", "result": "did not appear to inhibit tumor growth"}
    ]},
    {"smiles": "CC[C@]1(O)C[C@H]2CN(CCc3c([nH]c4ccccc34)[C@@](C(=O)OC)(c3cc4c(cc3OC)N(C=O)[C@H]3[C@@](O)(C(=O)OC)[C@H](OC(C)=O)[C@]5(CC)C=CCN6CC[C@]43[C@@H]65)C2)C1", "note": "[Vincristine, methyl (1R,9R,10S,11R,12R,19R)-11-(acetyloxy)-12-ethyl-4-[(13S,15S,17S)-17-ethyl-17-hydroxy-13-(methoxycarbonyl)-1,11-diazatetracyclo[13.3.1.0^4,12.0^5,10]nonadeca-4(12),5,7,9-tetraen-13-yl]-8-formyl-10-hydroxy-5-methoxy-8,16-diazapentacyclo[10.6.1.0^1,9.0^2,7.0^16,19]nonadeca-2,4,6,13-tetraene-10-carboxylate]", "values": [
      {"measurement": "weight loss", "setting": "[2]; higher dose of vincristine (1.5 mg/kg), Figure 9C", "result": "lost weight"},
      {"measurement": "weight loss", "setting": "[2]; lower dose of vincristine (1 mg/kg), data not shown", "result": "did not lose weight"}
    ]}
  ]
}
